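Cultured in 96-well plates, cells were exposed to test compound for 48 hours across five concentrations. TGI: concentration producing complete growth inhibition.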
What was measured:
Assay in all cases: DTP human tumour cell line panel, 48 h
[1] = system: 786-0 renal
[2] = system: A498 renal
[3] = system: A549 NSCLC
[4] = system: ACHN renal
[5] = system: CCRF-CEM leukemia
[6] = system: COLO 205 colon
[7] = system: DLD-1 colon
[8] = system: DMS 114 small cell lung
[9] = system: DMS 273 small cell lung
[10] = system: EKVX NSCLC
[11] = system: HCC-2998 colon
[12] = system: HCT-116 colon
[13] = system: HCT-15 colon
[14] = system: HL-60(TB) leukemia
[15] = system: HOP-62 NSCLC
[16] = system: HOP-92 NSCLC
[17] = system: HT29 colon
[18] = system: IGROV1 ovarian
[19] = system: K-562 leukemia
[20] = system: KM12 colon
[21] = system: LOX IMVI melanoma
[22] = system: LXFL 529 NSCLC
[23] = system: M14 melanoma
[24] = system: M19-MEL melanoma
[25] = system: MALME-3M melanoma
[26] = system: MOLT-4 leukemia
[27] = system: NCI-H226 lung
[28] = system: NCI-H23 lung
[29] = system: NCI-H460 lung
[30] = system: NCI-H522 lung
[31] = system: OVCAR-3 ovarian
[32] = system: OVCAR-4 ovarian
[33] = system: OVCAR-5 ovarian
[34] = system: OVCAR-8 ovarian
[35] = system: RPMI-8226 leukemia
[36] = system: RXF 393 renal
[37] = system: RXF-631 renal
[38] = system: SF-268 CNS
[39] = system: SF-295 CNS
[40] = system: SF-539 CNS
[41] = system: SK-MEL-2 melanoma
[42] = system: SK-MEL-28 melanoma
[43] = system: SK-MEL-5 melanoma
[44] = system: SK-OV-3 ovarian
[45] = system: SN12C renal
[46] = system: SNB-19 CNS
[47] = system: SNB-75 CNS
[48] = system: SNB-78 CNS
[49] = system: SR leukemia
[50] = system: SW-620 colon
[51] = system: TK-10 renal
[52] = system: U251 CNS
[53] = system: UACC-257 melanoma
[54] = system: UACC-62 melanoma
[55] = system: UO-31 renal
[56] = system: XF 498 CNS
[57] = system: CAKI-1 renal
[58] = system: KM20L2 colon

`COc1ccc(O)c2c(=O)ccccc12` was tested, and the TGI [1] was > 100 µM, the TGI [2] was > 100 µM and the TGI [3] was > 100 µM. The TGI [4] was > 100 µM, the TGI [5] was > 100 µM and the TGI [6] was > 100 µM. For the same compound, the TGI [7] was > 100 µM, the TGI [8] was > 100 µM and the TGI [9] was > 100 µM. The TGI [10] was > 100 µM, the TGI [11] was > 100 µM and the TGI [12] was > 100 µM. For the same compound, the TGI [13] was > 100 µM, the TGI [14] was > 100 µM and the TGI [15] was > 100 µM. For the same compound, the TGI [16] was > 100 µM, the TGI [17] was > 100 µM and the TGI [18] was > 100 µM. For the same compound, the TGI [19] was > 100 µM, the TGI [20] was > 100 µM and the TGI [21] was > 100 µM. The TGI [22] was > 100 µM, the TGI [23] was > 100 µM and the TGI [24] was > 100 µM. For the same compound, the TGI [25] was > 100 µM, the TGI [26] was > 100 µM and the TGI [27] was > 100 µM. The TGI [28] was > 100 µM, the TGI [29] was > 100 µM and the TGI [30] was 91.7 µM. For the same compound, the TGI [31] was > 100 µM, the TGI [32] was > 100 µM and the TGI [33] was > 100 µM. For the same compound, the TGI [34] was > 100 µM, the TGI [35] was > 100 µM and the TGI [36] was > 100 µM. The TGI [37] was > 100 µM, the TGI [38] was > 100 µM and the TGI [39] was > 100 µM. For the same compound, the TGI [40] was > 100 µM, the TGI [41] was > 100 µM and the TGI [42] was > 100 µM. For the same compound, the TGI [43] was > 100 µM, the TGI [44] was > 100 µM and the TGI [45] was > 100 µM. The TGI [46] was > 100 µM, the TGI [47] was > 100 µM and the TGI [48] was > 100 µM. The TGI [49] was > 100 µM, the TGI [50] was > 100 µM and the TGI [51] was 60 µM. For the same compound, the TGI [52] was > 100 µM, the TGI [53] was > 100 µM and the TGI [54] was > 100 µM. For the same compound, the TGI [55] was > 100 µM and the TGI [56] was > 100 µM.
In the case of `CC1C=CC(O)[C@]2(CO)CC3(CCC12)OCCO3` (stereo not given in full), the TGI [1] is reported as > 100 µM, the TGI [2] is reported as > 100 µM and the TGI [3] is reported as > 100 µM. For the same compound, the TGI [4] was > 100 µM, the TGI [57] was > 100 µM and the TGI [5] was > 100 µM. For the same compound, the TGI [7] was > 100 µM, the TGI [8] was > 100 µM and the TGI [9] was > 100 µM. The TGI [10] was > 100 µM, the TGI [11] was > 100 µM and the TGI [12] was > 100 µM. The TGI [14] was > 100 µM, the TGI [15] was > 100 µM and the TGI [16] was > 100 µM. The TGI [17] was > 100 µM, the TGI [18] was > 100 µM and the TGI [19] was > 100 µM. For the same compound, the TGI [20] was > 100 µM, the TGI [58] was > 100 µM and the TGI [22] was > 100 µM. The TGI [23] was > 100 µM, the TGI [24] was > 100 µM and the TGI [25] was > 100 µM. For the same compound, the TGI [26] was > 100 µM, the TGI [27] was > 100 µM and the TGI [28] was > 100 µM. For the same compound, the TGI [29] was > 100 µM, the TGI [30] was > 100 µM and the TGI [31] was > 100 µM. The TGI [32] was > 100 µM, the TGI [33] was > 100 µM and the TGI [34] was > 100 µM. For the same compound, the TGI [36] was > 100 µM, the TGI [37] was > 100 µM and the TGI [38] was > 100 µM. For the same compound, the TGI [39] was > 100 µM, the TGI [40] was > 100 µM and the TGI [41] was > 100 µM. For the same compound, the TGI [42] was > 100 µM, the TGI [43] was > 100 µM and the TGI [44] was > 100 µM. For the same compound, the TGI [45] was > 100 µM, the TGI [46] was > 100 µM and the TGI [47] was > 100 µM. The TGI [48] was > 100 µM, the TGI [49] was > 100 µM and the TGI [50] was > 100 µM. The TGI [51] was > 100 µM, the TGI [52] was > 100 µM and the TGI [53] was > 100 µM. The TGI [54] was > 100 µM, the TGI [55] was > 100 µM and the TGI [56] was > 100 µM.
